Assays:
[1] = test system: rat embryonic cortical neuron cultures; assay: Neurite outgrowth in primary rat embryonic cortical neuron cultures, single test articles (Example 1); assay type: cell-based; conditions: 3 days treatment, compared to 0.1% sterile water vehicle control
Excerpt: Primary rat cortical neuron experimental methods: Female Wistar rats of 17 days gestation were killed by cervical dislocation and the fetuses (typically 6 to 8 in number) were removed from the uterus. Fetal brains were placed in ice-cold medium of Leibovitz (L15, Gibco, France). Cortex was dissected and meninges were carefully removed. The cortical neurons were dissociated by trypsinization (trypsin-EDTA, Gibco) in the presence of DNAse I (Roche, France). The reaction was stopped by addition of Dulbecco's Modified Eagle Medium (DMEM; Gibco) with 10% of fetal bovine serum (FBS; Gibco). The suspension was triturated with a 10-ml pipette and a 21-gauge needle syringe and centrifuged. The pellet of dissociated cells was resuspended in a medium consisting of Neurobasal (Gibco) supplemented with 2% B27 supplement (Gibco), 0.5 mM L-Glutamine (Gibco), and an antibiotic-antimycotic mixture. Viable cells were counted in a Neubauer cytometer and cells were seeded in 96-well plates (Costar) precoated with poly-L-lysine at 10,000 cells/well.
Stock solutions were prepared in sterile water at 10 mM, and stored at −20° C. until use. Further dilution will be performed in culture in the medium on the day of the treatment. 0.1% Sterile water will be present in all tested conditions. The following conditions were tested: 1) Racemic MDMA (10000, 1000, 100, 10, 1, 0.1, 0.01, 0.001 nM), 2) S(+)-MDMA (10000, 1000, 100, 10, 1, 0.1, 0.01, 0.001 nM), 3) R(−)-MDMA (10000, 1000, 100, 10, 1, 0.1, 0.01, 0.001 nM), 4) Racemic MDA (10000, 1000, 100, 10, 1, 0.1, 0.01, 0.001 nM), 5) S(+)-MDA (10000, 1000, 100, 10, 1, 0.1, 0.01, 0.001 nM), and 6) R(−)-MDA (10000, 1000, 100, 10, 1, 0.1, 0.01, 0.001 nM).
The experimental protocol was performed in 2 independent cultures (i.e., from 2 different pregnant rats). For each culture, each condition was tested in sextuplet (6 wells per condition per culture for a total of 12 wells per condition). […] After three days of plating and compound treatment (Day3), cultures were fixed with paraformaldehyde in phosphate buffered saline at 4° C. (PBS, 4%, Sigma). Then, all subsequent steps were performed at room temperature.
Cells were successively permeabilized for 30 minutes using 0.1% triton, saturated with PBS containing 3% bovine serum albumin (BSA) and incubated for 1 hour with anti-beta III tubulin antibody (T5168, Sigma). Cells were first washed 3 times and then were incubated for 1 hour with goat anti-mouse secondary antibody coupled with Alexa Fluor 488 (AF488, Invitrogen A11001). Finally, nuclei were stained with 4′-6-diamidino-2-phenylindole (DAPI). After rinsing the cells with PBS, the plate was imaged and neurite networks were examined and analyzed using a High-Content Screening platform (CellInsight CX5, Thermo Scientific) with integrated Photometrics high-resolution fluorescent camera, Olympus objective (10×) and HCS Studio Cell Analysis Software.
Approximately 2,000 neurons per well were analyzed using a validated cortex neuron outgrowth algorithm that utilizes parameters optimized for analysis of embryonic rat cortical neuron cultures. The HCS Studio Cell Analysis Software output will include values for neurite number total count, neurite total length (μm) and total number of branch points for each of the 6 wells per culture. The evaluation of neurite outgrowth was performed using the average number of neurites per neuron, the average total neurite length per neuron (μm) and the average number of branch points per neuron across 12 wells. Data also were transformed to percent (%) of the average vehicle control value. Results were expressed as mean (±s.e.m.) of the transformed (% of vehicle control) data. Statistical analyses were performed on transformed percent of the average vehicle control data for each measure for each test article using one-way analysis of variance (Anova, StatView or GraphPad Prism). Where applicable, Dunnett's test was used for multiple pairwise comparisons to the negative control (vehicle) condition. […]

[2] = test system: rat embryonic cortical neuron cultures; assay: Neurite outgrowth in primary rat embryonic cortical neuron cultures, racemic and non-racemic R(−)/S(+)-MDMA mixtures (Example 2); assay type: cell-based; conditions: concentrations of R(−)- and S(+)-MDMA as in the label (alone: 10 uM), 3 days treatment, compared to vehicle control, Anova/Dunnett p<0.05
Excerpt: Primary rat cortical neuron experimental methods: Female Wistar rats of 17 days gestation are killed by cervical dislocation and the fetuses (typically 6 to 8 in number) are removed from the uterus. Their brains are placed in ice-cold medium of Leibovitz (L15, Gibco, France). Cortex is dissected and meninges are carefully removed. The cortical neurons are dissociated by trypsinization (trypsin-EDTA, Gibco) in presence of DNAse I (Roche, France). The reaction is stopped by addition of Dulbecco's Modified Eagle Medium (DMEM; Gibco) with 10% of fetal bovine serum (FBS; Gibco). The suspension is triturated with a 10-ml pipette and using a needle syringe 21G and centrifuged. The pellet of dissociated cells is resuspended in a medium consisting of Neurobasal (Gibco) supplemented with 2% B27 supplement (Gibco), 0.5 mM L-Glutamine (Gibco), an antibiotic-antimycotic mixture. Viable cells are counted in a Neubauer cytometer and cells are seeded in 96-well plate (Costar) precoated with poly-L-lysine at 10 000cells/well.
The protocol is performed in either 1 or 2 independent cultures (i.e., from 1 or 2 different pregnant rats). For each culture, each condition is performed in sextuplet (6 wells per condition per culture from 1 rat, or a total of 12 wells per condition when 2 rats/cultures are used).
Cells are treated with the test compounds R(−)-MDMA and S(+)-MDMA as described in the following Tables below.
After three days of plating and test compound treatment (Day3), cultures are fixed with paraformaldehyde in phosphate buffered saline at 4° C. (PBS, 4%, Sigma). Then all steps will be performed at room temperature. Cells are successively permeabilized 30 min using 0.1% triton, saturated with PBS containing 3% bovine serum albumin (BSA) and incubated 1 h with anti-beta III tubulin antibody (T5168, Sigma). Cells are first washed 3 times and are then incubated 1 h with goat anti-mouse secondary antibody coupled with Alexa Fluor 488 (AF488, Invitrogen A11001). Finally, nuclei are stained with 4′-6-diamidino-2-phenylindole (DAPI). After rinsing the cells with PBS, the plate is filmed and neurite networks are examined and analyzed using a High-Content Screening platform (CellInsight CX5, Thermo Scientific) with integrated Photometrics high-resolution fluorescent camera, Olympus objective (10×) and HCS Studio Cell Analysis Software.
Approximately 2000 neurons per well were analyzed using a validated Cortex Neuron Outgrowth algorithm established by Neurofit that utilizes parameters optimized for analysis of embryonic rat cortical neuron cultures. The HCS Studio Cell Analysis Software output will include values for neurite total count number, neurite total length (μm) and total number of branch points for each of the 6 wells per culture. The evaluation of neurite outgrowth was performed using the average number of neurites per neuron, the average of total neurite length per neuron (μm) and the average number of branchpoint per neuron across 6 wells of each culture (6 wells total (1 rat used) or 12 wells total (2 rats used). Data were transformed to % of the average vehicle control value.

[3] = at any tested concentration (0.001-10000 nM)

| Compound | neurite number [1, 3] | neurite total length (μm) [1, 3] | total number of branch points [1, 3] | average number of branchpoints per neuron [2] | average number of neurites per neuron [2] | average total neurite length per neuron [2] | neurite number ([1]; at 0.0001 μM) | neurite number ([1]; at 10 μM, Anova/Dunnett p<0.05) | neurite total length (μm) ([1]; at 10 μM, Anova/Dunnett p<0.05) | total number of branch points ([1]; at 10 μM, Anova/Dunnett p<0.05) |
| --- | --- | --- | --- | --- | --- | --- | --- | --- | --- | --- |
| C[C@H](N)Cc1ccc2c(c1)OCO2 [S(+)-MDA] | did not significantly alter | did not significantly alter | did not significantly alter | – | – | – | – | – | – | – |
| CN[C@H](C)Cc1ccc2c(c1)OCO2 [R(−)-MDMA, (R)-3,4-methylenedioxymethamphetamine] | – | – | – | did not have significant effects | did not have significant effects | significantly induced | significantly increased | significantly increased | significantly increased | significantly increased |
| CN[C@@H](C)Cc1ccc2c(c1)OCO2 [S(+)-MDMA] | did not significantly alter | did not significantly alter | did not significantly alter | did not significantly induce | did not significantly induce | did not significantly induce | – | – | – | – |
| CNC(C)Cc1ccc2c(c1)OCO2 (racemic) [Racemic R,S(+/−)-MDMA, 3,4-Methylenedioxymethamphetamine] | – | – | – | – | – | – | – | significantly increased | significantly increased | significantly increased |
| C[C@@H](N)Cc1ccc2c(c1)OCO2 [R(−)-MDA] | did not significantly alter | did not significantly alter | did not significantly alter | – | – | – | – | – | – | – |
| CC(N)Cc1ccc2c(c1)OCO2 (racemic) [racemic R,S(+/−)-MDA, 3,4-methylenedioxyamphetamine, reference compound] | did not significantly alter | did not significantly alter | did not significantly alter | – | – | – | – | – | – | – |

Reference: US20230129723A1, “EN[…] OF 3,4-METHYLENEDIOXYMETHAMPHETAMINE AND RELATED METABOLITES AND USES THEREOF” (ATAI Life Sciences AG, priority 2021, published 2023)
